This note sets out measurements from patent US8962575B2, “Clerodane derivatives for modulation of leukotriene receptor activity and related diseases” (Biotropics Malaysia Berhad, priority 2011, dated 2015).

Molecules are shown by their SMILES.

This assay addresses T1, Human BLT2 Receptor (Homo sapiens, UniProt Q9NPC1).
T1 construct: host or cells: BLT2 HEK293T cells transiently transfected with chimeric G protein Gαqi5
T1 sequence (Q9NPC1 1-358): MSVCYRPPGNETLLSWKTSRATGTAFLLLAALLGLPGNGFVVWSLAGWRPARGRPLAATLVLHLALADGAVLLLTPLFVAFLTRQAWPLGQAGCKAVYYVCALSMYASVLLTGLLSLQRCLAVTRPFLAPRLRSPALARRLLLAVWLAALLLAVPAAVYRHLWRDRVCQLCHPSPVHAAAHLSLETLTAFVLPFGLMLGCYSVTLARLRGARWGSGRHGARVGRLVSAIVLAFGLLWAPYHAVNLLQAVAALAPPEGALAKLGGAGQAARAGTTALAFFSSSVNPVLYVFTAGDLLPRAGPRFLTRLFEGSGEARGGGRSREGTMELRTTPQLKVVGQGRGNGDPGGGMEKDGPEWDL
The experiment in a line: Recombinant cell assay (calcium flux, antagonist mode, LTB4 pre-stimulation). Format: cell-based. To be noted: pure compounds at 10 μM, 5 min pre-incubation; antagonist mode with LTB4; BLT2 HEK293T cells. Here is the method:
A) Recombinant Cell Assay (Human BLT2 Receptor)
The BLT2 assay conducted was a functional cell based assay, with transiently transfected HEK293T cells (Transfection: with chimeric G protein Gαqi5; Minami et al, “Analysis of the effects of halothane on Gi-coupled muscarinic M2 receptor signal” Pharmacology (2004) 72: 205-12). […] The test items were measured subsequently in the antagonist mode as described above in a concentration of 10 μM (pure compounds) or 15 μg/ml (extracts and/or mixtures).
This assay was performed by Multispan, Inc., Hayward (CA, USA) under the catalog no C1272, the assay principle is outlined by Yokomizo (J Exp Med (2000) 192:421-432).
• Cells: BLT2 HEK293T cells transiently transfected with chimeric G protein Gαqi5 • Compounds: Test compounds dissolved in DMSO at a concentration of 10 mM or 100 mg/mL.
Calcium assay: Cells were seeded in 384-well plates at appropriate densities and cultured overnight. Calcium assays were conducted according to the manufacturer's protocol using Molecular Devices FLIPR Calcium 4 Assay kit. Calcium 4 dye loading buffer was added to the cells and incubated for one hour at 37° C. The test compounds were pre-incubated for 5 minutes at a final concentration of 10 μM or 15 μg/mL, respectively. Calcium flux was measured for 90 seconds with the respective agonist compound injected into the wells at 19th second. Agonist was used at a concentration in which maximum reaction was observed.
Data analysis: Calcium assay results are expressed as “RFU” (Relative Fluorescence Units) and are shown in the following table as “remaining % RFU against DMOS) (meaning % Increase in RFU after correction for DMSO and baseline). Two-tailed Student's t-test was used for treatment comparisons and statistic significance was defined as p<0.05.
As for `COC(=O)C1=CC(O)CC2C3(C)CC(c4ccoc4)OC(=O)C3CC(OC3OC(CO)C(O)C(O)C3O)C12C` (stereo not drawn) [COI 4, methyl 2-(furan-3-yl)-9-hydroxy-6a,10b-dimethyl-4-oxo-6-(3,4,5-trihydroxy-6-(hydroxymethyl)tetrahydro-2H-pyran-2-yloxy)-2,4,4a,5,6,6a,9,10,10a,10b-decahydro-1H-benzo[f]isochromene-7-carboxylate], the “remaining % RFU against DMSO [%]” value came out at 78.6%.
Turning to `COC(=O)C1=CCCC2C3(C)CC(c4ccoc4)OC(=O)C3CC(OC3OC(CO)C(OC4OC(CO)C(O)C(O)C4O)C(O)C3O)C12C` (stereo not drawn) [COI 5, methyl 6-(3,4-dihydroxy-6-(hydroxymethyl)-5-(3,4,5-trihydroxy-6-(hydroxymethyl)tetrahydro-2H-pyran-2-yloxy)tetrahydro-2H-pyran-2-yloxy)-2-(furan-3-yl)-6a,10b-dimethyl-4-oxo-2,4,4a,5,6,6a,9,10,10a,10b-decahydro-1H-benzo[f]isochromene-7-carboxylate], the “remaining % RFU against DMSO [%]” value is 79.7%.
Consider `CC12CC(c3ccoc3)OC(=O)C1CC1OC(=O)C3(O)C(OC4OC(CO)C(O)C(O)C4O)CCC2C13C` (stereo not drawn) [COI 7, 9-(furan-3-yl)-3a-hydroxy-3a1,10a-dimethyl-3-(3,4,5-trihydroxy-6-(hydroxymethyl)tetrahydro-2H-pyran-2-yloxy)decahydroisobenzofuro[7,1-fg]isochromene-4,7(3a1H,5aH)-dione], for which the “remaining % RFU against DMSO [%]” value is 83.2%.
